Results published in PMC4890880 (ACS infectious diseases, 2016).
Where two headings read alike, the source gives them in different places.

System: HepG2-A16-CD81EGFP cells
Settings: for IC50: read-out: Tox_IC50, HepG2 cytotoxicity
[1] = sheet 2nd round, maximal inhibition in dose response

SMILES	IC50 (sheet 2nd round)	Tox_max_inhibition (%) [1]	IC50 (sheet "2nd round")	Tox_max_inhibition (%) (sheet "2nd round")
CO[C@@H]1CN(C)C(=O)c2ccc(NC(=O)NC(C)C)cc2OC[C@@H](C)N(Cc2ccccc2)C[C@H]1C [BRD-K91191258-001-01-9]	> 10 µM	9%		
CN1C(=O)c2cc(NC(=O)c3ccc(C(F)(F)F)cc3)ccc2OC[C@H]2O[C@H](CC(=O)NCc3ccc4c(c3)OCO4)CC[C@@H]21 [BRD-K92009254-001-01-6]			8.97 µM	53%
Cc1ccccc1-c1ccc([C@@H]2[C@H](CO)N3CCCCN(S(=O)(=O)Cc4ccccc4)C[C@@H]23)cc1 [BRD-K92048968-001-01-1]	> 10 µM	7%		
C[C@@H]1CN([C@@H](C)CO)C(=O)c2cccc(NC(=O)c3cnccn3)c2O[C@@H]1CN(C)Cc1ccc(-c2ccccc2)cc1 [BRD-K92545585-001-01-9]	> 10 µM	4.65%		
C[C@@H]1CCCCO[C@H](CN(C)S(=O)(=O)c2ccccc2)[C@@H](C)CN([C@@H](C)CO)C(=O)c2cc(NC(=O)Nc3ccc4c(c3)OCO4)ccc2O1 [BRD-K94107458-001-01-0]			> 10 µM	5%
O=C(Nc1ccc(F)cc1)N1C[C@@H]2[C@H](c3ccccc31)[C@@H](CO)N2Cc1ccccc1Cl [BRD-K95406835-001-01-9]	> 10 µM	4.68%		
O=C(C1CC1)N1C[C@@H]2N[C@H](C1)C2c1ccc(-c2ccccc2F)cc1 (some centres unmarked) [BRD-K95724677-019-01-8]	3.72 µM	93%		
C[C@@H]1CCCCO[C@@H](CN(C)Cc2ccc(Cl)c(Cl)c2)[C@@H](C)CN([C@@H](C)CO)C(=O)c2cc(NS(=O)(=O)c3cccs3)ccc2O1 [BRD-K97609851-001-01-5]	> 10 µM	39%		
Cc1ccc(S(=O)(=O)N(C)C[C@H]2Oc3cc(C#CC4CCCC4)ccc3S(=O)(=O)N([C@@H](C)CO)C[C@H]2C)cc1 [BRD-K99467823-001-01-1]	> 10 µM	31%		
N#C[C@@H]1[C@H](c2ccccc2)[C@H](CO)N1C(=O)Nc1cccc(F)c1 [BRD-K99496840-001-01-9]	> 10 µM	4.23%		
